Source: ChEMBL document CHEMBL1201862, “PubChem BioAssay data set” (2004)
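Briefly, cells in 96-well plates were exposed to five compound concentrations for 48 h, and endpoints were estimated by linear interpolation. GI50: concentration for 50% inhibition of growth.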 Active and inactive are the calls of the source. Rule as the data show it: active = GI50 up to about 1.1 µM and inactive = higher.

Key:
Assay in all cases: DTP human tumour cell line panel, 48 h
[1] = tested on: 786-0
[2] = tested on: A549
[3] = tested on: ACHN
[4] = tested on: CCRF-CEM
[5] = tested on: HCC 2998
[6] = tested on: Hs-578T
[7] = tested on: K562
[8] = tested on: LOX IMVI
[9] = tested on: MDA-MB-435
[10] = tested on: MDA-N
[11] = tested on: NCI-H460
[12] = tested on: NCI/ADR-RES
[13] = tested on: OVCAR-3
[14] = tested on: SF-539
[15] = tested on: SK-MEL-2
[16] = tested on: T47D
[17] = tested on: TK-10
[18] = tested on: U-251
[19] = tested on: UO-31

SMILES	GI50 [1]	GI50 [2]	GI50 [3]	GI50 [4]	GI50 [5]	GI50 [6]	GI50 [7]	GI50 [8]	GI50 [9]	GI50 [10]	GI50 [11]	GI50 [12]	GI50 [13]	GI50 [14]	GI50 [15]	GI50 [16]	GI50 [17]	GI50 [18]	GI50 [19]
CCC(/C=C/c1ccccc1)=N\Nc1ccc(Cl)c(Cl)c1	34.4 µM (inactive)	39.7 µM (inactive)	26.7 µM (inactive)	62.4 µM (inactive)	25.9 µM (inactive)	55.3 µM (inactive)	32.9 µM (inactive)	22.8 µM (inactive)	33.3 µM (inactive)	34.3 µM (inactive)	33.3 µM (inactive)	31.9 µM (inactive)	25.7 µM (inactive)	25.8 µM (inactive)	17.7 µM (inactive)	49.9 µM (inactive)	56.6 µM (inactive)	3.22 µM (inactive)	21.4 µM (inactive)
CC(C(=O)OCc1ccccc1)(c1ccco1)N1C(=O)OC(c2ccccc2)C1c1ccccc1 (configuration not stated)	> 100 µM (inactive)	> 100 µM (inactive)	> 100 µM (inactive)	4.04 µM (inactive)	> 100 µM (inactive)	> 100 µM (inactive)	7.18 µM (inactive)	14.7 µM (inactive)	> 100 µM (inactive)	> 51.1 µM (inactive)	26.1 µM (inactive)	> 100 µM (inactive)	> 100 µM (inactive)	> 100 µM (inactive)	> 100 µM (inactive)	5.96 µM (inactive)	> 100 µM (inactive)	> 100 µM (inactive)	6.34 µM (inactive)
CCOC(CN(C)C(=S)Nc1cccc2ccccc12)OCC	> 10 µM (inactive)	> 10 µM (inactive)	> 10 µM (inactive)	> 10 µM (inactive)	> 10 µM (inactive)	> 10 µM (inactive)	> 10 µM (inactive)	> 10 µM (inactive)	> 10 µM (inactive)	> 10 µM (inactive)	> 10 µM (inactive)	> 10 µM (inactive)	> 10 µM (inactive)	> 10 µM (inactive)	> 10 µM (inactive)	> 10 µM (inactive)	> 10 µM (inactive)	> 10 µM (inactive)	> 10 µM (inactive)
CC(=O)Nc1ccc(S(=O)(=O)/N=C2\C=CC(=O)c3ccccc32)cc1	9.25 µM (inactive)	9.98 µM (inactive)	7.35 µM (inactive)	3.37 µM (inactive)	3.21 µM (inactive)	7.64 µM (inactive)	2.57 µM (inactive)	2.04 µM (inactive)	1.84 µM (inactive)	1.95 µM (inactive)	12.1 µM (inactive)	5.9 µM (inactive)	2.45 µM (inactive)	7.66 µM (inactive)	14.3 µM (inactive)	8.17 µM (inactive)	19.9 µM (inactive)	5.81 µM (inactive)	7.48 µM (inactive)
CC(C)NC(=O)OCc1c2c(n(C)c1COC(=O)NC(C)C)-c1cc(Cl)c(Cl)cc1CC2	37.2 µM (inactive)	61 µM (inactive)	34.2 µM (inactive)	17.2 µM (inactive)	14.9 µM (inactive)	32.1 µM (inactive)	16.6 µM (inactive)	38.3 µM (inactive)	33.7 µM (inactive)	32 µM (inactive)	34.4 µM (inactive)	33.4 µM (inactive)	29.1 µM (inactive)	50.2 µM (inactive)	25.2 µM (inactive)	22.6 µM (inactive)	25.2 µM (inactive)	18.2 µM (inactive)	27 µM (inactive)
O=C(c1ccccc1)c1ccc(C(c2c(O)c3ccccc3oc2=O)c2c(O)c3ccccc3oc2=O)cc1	21.2 µM (inactive)	26.9 µM (inactive)	20 µM (inactive)	27.9 µM (inactive)	21 µM (inactive)	24.7 µM (inactive)	33.5 µM (inactive)	29.9 µM (inactive)	29.4 µM (inactive)	28.2 µM (inactive)	40.8 µM (inactive)	22.9 µM (inactive)	26.2 µM (inactive)	30.3 µM (inactive)	28.2 µM (inactive)	34.2 µM (inactive)	17.9 µM (inactive)	26.6 µM (inactive)	14.8 µM (inactive)
COC(=O)/C=C1/OC(c2ccc(C)cc2)=C(Cl)C1=O	13.9 µM (inactive)	20.1 µM (inactive)	16.7 µM (inactive)	3.26 µM (inactive)	18.9 µM (inactive)	22.9 µM (inactive)	4.97 µM (inactive)	9.2 µM (inactive)	17.8 µM (inactive)	16.4 µM (inactive)	22 µM (inactive)	22.1 µM (inactive)	12.4 µM (inactive)	16.6 µM (inactive)	16.7 µM (inactive)	15.3 µM (inactive)	20.5 µM (inactive)	12 µM (inactive)	17.5 µM (inactive)
CCOC(=O)c1sc2nc(SC)nc(Nc3ccc(OC)c(OC)c3)c2c1N	5.51 µM (inactive)	5.28 µM (inactive)	13.2 µM (inactive)	1.3 µM (inactive)	60 µM (inactive)	17.7 µM (inactive)	> 100 µM (inactive)	> 100 µM (inactive)	34.3 µM (inactive)	> 100 µM (inactive)	< 0.01 µM (active)	3.48 µM (inactive)	9.35 µM (inactive)	1.58 µM (inactive)	19.7 µM (inactive)	6.08 µM (inactive)	6.73 µM (inactive)	3.03 µM (inactive)	22.4 µM (inactive)
COc1ccc2c(c1)C(=O)c1ccccc1C2	73.8 µM (inactive)	86.7 µM (inactive)	> 100 µM (inactive)	25.1 µM (inactive)	70.8 µM (inactive)	44.4 µM (inactive)	40.3 µM (inactive)	49.9 µM (inactive)	41.7 µM (inactive)	> 100 µM (inactive)	61.8 µM (inactive)	59.6 µM (inactive)	82.2 µM (inactive)	61.1 µM (inactive)	48.3 µM (inactive)	19.7 µM (inactive)	48.1 µM (inactive)	45.2 µM (inactive)	> 100 µM (inactive)
O=C1N=C(SC2OC(CO)C(O)C(O)C2O)S/C1=C\c1ccccc1 (configuration not stated)	> 100 µM (inactive)	> 100 µM (inactive)	> 100 µM (inactive)	> 100 µM (inactive)	> 100 µM (inactive)	> 100 µM (inactive)	> 100 µM (inactive)	> 100 µM (inactive)	> 100 µM (inactive)	> 100 µM (inactive)	> 100 µM (inactive)	> 100 µM (inactive)	> 100 µM (inactive)	> 100 µM (inactive)	> 100 µM (inactive)	> 100 µM (inactive)	> 100 µM (inactive)	–	> 100 µM (inactive)
Cn1cc(-c2ccc(CCOC3CCCCO3)cc2)c2c(C#N)cccc21 (configuration not stated)	92.3 µM (inactive)	31 µM (inactive)	–	24.4 µM (inactive)	35.7 µM (inactive)	> 100 µM (inactive)	22.9 µM (inactive)	41.9 µM (inactive)	36.9 µM (inactive)	48 µM (inactive)	42.6 µM (inactive)	30.9 µM (inactive)	67.8 µM (inactive)	55 µM (inactive)	28.7 µM (inactive)	21.3 µM (inactive)	48.3 µM (inactive)	28.6 µM (inactive)	28 µM (inactive)
Fc1ccc2nc3n(c2c1)C(c1c(Cl)cccc1Cl)SC3 (configuration not stated)	> 100 µM (inactive)	> 100 µM (inactive)	> 100 µM (inactive)	–	> 100 µM (inactive)	> 100 µM (inactive)	–	> 100 µM (inactive)	> 100 µM (inactive)	7.89 µM (inactive)	> 100 µM (inactive)	> 100 µM (inactive)	> 100 µM (inactive)	> 100 µM (inactive)	> 100 µM (inactive)	> 100 µM (inactive)	> 100 µM (inactive)	> 100 µM (inactive)	> 100 µM (inactive)
COC(=O)C1CC23C=CCN4CC(C2C)C2(c5ccccc5NC12)C43 (configuration not stated)	> 100 µM (inactive)	> 100 µM (inactive)	> 100 µM (inactive)	> 100 µM (inactive)	> 100 µM (inactive)	> 100 µM (inactive)	> 100 µM (inactive)	> 100 µM (inactive)	> 100 µM (inactive)	> 100 µM (inactive)	> 100 µM (inactive)	> 100 µM (inactive)	> 100 µM (inactive)	> 100 µM (inactive)	> 100 µM (inactive)	> 100 µM (inactive)	> 100 µM (inactive)	> 100 µM (inactive)	–
O=C(OCc1ccccc1)N1CCN(C(=O)OCc2ccccc2)CCN(C(=O)OCc2ccccc2)CCN(C(=O)OCc2ccccc2)CCN(C(=O)OCc2ccccc2)CC1	16.8 µM (inactive)	> 100 µM (inactive)	> 100 µM (inactive)	–	> 100 µM (inactive)	39.3 µM (inactive)	–	80 µM (inactive)	> 100 µM (inactive)	> 100 µM (inactive)	> 100 µM (inactive)	79.4 µM (inactive)	> 100 µM (inactive)	28.3 µM (inactive)	> 100 µM (inactive)	> 100 µM (inactive)	46.6 µM (inactive)	76.7 µM (inactive)	22.8 µM (inactive)
COC(=O)c1nc(Cl)nc(Cl)c1Cl	17.3 µM (inactive)	44.1 µM (inactive)	14.4 µM (inactive)	6.49 µM (inactive)	22 µM (inactive)	21.8 µM (inactive)	12.2 µM (inactive)	13.4 µM (inactive)	15.8 µM (inactive)	29.5 µM (inactive)	32.2 µM (inactive)	33.8 µM (inactive)	2.02 µM (inactive)	24.5 µM (inactive)	–	24.3 µM (inactive)	21.2 µM (inactive)	26.1 µM (inactive)	19.2 µM (inactive)
